# According to publication PMC9919157, “Synergistic Inhibiting Effect of Phytochemicals in Rheum palmatum on Tyrosinase Based on Metabolomics and Isobologram Analyses” (Molecules, 2023):
# Molecular target: T1, mushroom tyrosinase (TYR) (Agaricus bisporus, UniProt C7FF04)
# T1 construct: gene PPO3
# Experiment: dopachrome assay with L-DOPA substrate; partial inhibition only (maximum about […]; IC20 […])
# Format: biochemical
# T1 sequence (C7FF04 2-392): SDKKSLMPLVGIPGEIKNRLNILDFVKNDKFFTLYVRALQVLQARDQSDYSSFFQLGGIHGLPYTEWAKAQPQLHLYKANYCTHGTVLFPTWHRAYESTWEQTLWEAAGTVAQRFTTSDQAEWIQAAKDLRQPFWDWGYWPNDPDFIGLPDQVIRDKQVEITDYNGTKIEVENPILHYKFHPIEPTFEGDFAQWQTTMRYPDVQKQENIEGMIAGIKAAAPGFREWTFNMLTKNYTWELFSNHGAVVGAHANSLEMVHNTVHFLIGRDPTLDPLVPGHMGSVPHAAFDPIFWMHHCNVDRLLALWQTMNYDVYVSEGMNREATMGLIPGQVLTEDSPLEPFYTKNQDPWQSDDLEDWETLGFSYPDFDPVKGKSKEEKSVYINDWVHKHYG
structure (smiles),measurement,value
"Oc1cc(O)c2c(c1)O[C@H](c1ccc(O)c(O)c1)[C@@H](O)C2 [CH, catechin hydrate]",Emax,~25%
